Drawing on patent publication US6255517A, “Thymol derivatives having anti-tumor activity, and anti-cancer agent comprising the same” (Zee; Ok Pyo, priority 1998, dated 2001), this text covers IC50 for 7 compounds.

Like-named read-outs stand apart in the source and are kept apart here.

Holding throughout (format): cell-based
The subject of one test is A549. Description: SRB cytotoxicity (anti-tumor activity) in vitro, A549. The settings on record: Homo sapiens. From the text:
(§1) Anti-Tumor (Cyto-Toxicity) Effect in vitro of the Compound According to the Present Invention
(§2) The method for detecting cyto-toxicity employed in the present experiment is Sulforhodamin B Bioassay (SRB) method, which was developed by National Cancer Institute (NCI) in the United States in 1989, for the purpose of measuring anti-tumor activity in vitro.
(§3) The tumor cells used in the experiments via SRB method are listed below:
A549: non small cell lungcarcinoma
(§4) The tumor cells listed above are all human tumor cell-lines, which were distributed from NCI in the United States and subcultured in Korea Chemical Institute. As a culture medium, RPMI 1640 culture medium supplemented with 5% FBS (fetal bovine serum) was used. Cultivation was performed in an 5% CO2 incubator with constant temperature (37° C.) and humidity. The subculture was carried out every three or four days, and a solution of 0.25% tyrosine and 3 mM trans-1,2-diaminocyclohexane-n,n,n,n-tetracetic acid (CDTA) dissolved in PBS (phosphate buffered saline) was used in order to release cells from the surface of the container.
(§5) The test compound synthesized according to the present invention was diluted to have a concentration of 30.0 μg/ml, 10.0 μg/ml, 3.0 μg/ml, 1.0 μg/ml, 0.3 μg/ml and 0.1 μg/ml, respectively, and the cyto-toxicity (anti-tumor activity) of the compound was measured. The maximum concentration of the sample was not more than 30.0 μg/ml. In order to prepare the samples for detection, DMSO (dimethylsulfoxide) was used, if necessary. The concentration of DMSO added was not more than 0.5%. Before added to the tumor cells, the sample solution, which was diluted via several steps, is filtered through a Millipore filter. In a sterile condition, the sample for detecting cyto-toxicity was prepared by means of SRB method using human tumor cell-lines such as A549, SK-OV-3, SK-MEL-2, XF498 and HCT15.
(§6) The subcultured tumor cells were released from the surface of instrument by using tyrosine-CDTA solution, and then charged on a 96-well flat bottom microplate to make the cell number 5×10^3 (A549, HCT15), 1×10^4 (SK-MEL-2, XF498) and 2×10^4 (SK-OV-3) for each cell. The tumor cells are attached on the bottom by cultivating in a CO2 incubator. After removing the culture medium by using an aspirator, the medium is eliminated by using log dose of six concentrations. To each well, 100 μl of 10% TCA (trichloroacetic acid) is added, and the plate was left for 1 hour at 4° C. to fix the cells on the bottom surface of the plate.
(§7) Then, the plate was washed with distilled water 5-6 times to completely remove the residual TCA solution, and dried up at room temperature. To each well of the completely dried plate, 100 μl of dye solution, in which 0.4% SRB solution was dissolved, was added to dye the cells for 30 minutes, and the cells were washed with 1% acetic acid to remove excess SRB which was not combined with the cells. The dyed cell plates were dried at room temperature, and 100 μl of 10 mM trisma base solution was added to each well. The solution was mixed by a titer plate shaker for 10 minutes to elute the dye solution. Then, the absorbance at 520 nm was measured by using a microplate reader.
(§8) In order to calculate the cyto-toxicity (anti-tumor activity) of the samples on tumor cells, the number of tumor cells at the point of adding the sample (Tz, zero time), the number of cells when only an excess amount of culture medium was added instead of the sample and cultured for 48 hours (C, control), and the number of cells when each concentration of the sample was added and cultured for 48 hours (T, test) were measured respectively. The cyto-toxicity was determined according to the following formulas:
(§9) When Tz>T: [(T-Tz)/(C-Tz)]×100
(§10) When Tz<T: [(T-Tz)/Tz]×100
(§11) From the calculated values thus obtained, ED50 (50% effective dose) [the concentration when the sample inhibits 50% of the growth of the tumor cells] was determined by the use of data regression tool of LOTUS program. […]

The subject of the next test is SK-OV-3. Description: SRB cytotoxicity (anti-tumor activity) in vitro, SK-OV-3. Conditions: Homo sapiens, SK-OV-3 ovary adenocarcinoma, 48 hours, read-out: ED50 (the source's name).
From the text: as §1, §2, §3
SK-OV-3: adenocarcinoma, ovary malignant ascites
as §4, §5, §6, §7, §8, §9, §10, §11

A further test deals with SK-MEL-2. Nature of the test: SRB cytotoxicity (anti-tumor activity) in vitro, SK-MEL-2. Conditions: Homo sapiens, SK-MEL-2 malignant melanoma, 48 hours, read-out: ED50 (the source's name).
From the text: as §1, §2, §3
SK-MEL-2: malignant melanoma, metastasis to skin of thigh
as §4, §5, §6, §7, §8, §9, §10, §11

Another test has as its system XF498. Nature of the test: SRB cytotoxicity (anti-tumor activity) in vitro, XF498. Conditions: Homo sapiens, XF498 central nerve system tumor, 48 hours, read-out: ED50 (the source's name).
From the text: as §1, §2, §3
XF498: central nerve system tumor
as §4, §5, §6, §7, §8, §9, §10, §11

Another test has as its system HCT15. Description: SRB cytotoxicity (anti-tumor activity) in vitro, HCT15. The settings on record: Homo sapiens, HCT-15, HCT15 colon adenocarcinoma, 48 hours, read-out: ED50 (the source's name).
From the text: as §1, §2, §3
HCT15: colon adenocarcinoma
as §4, §5, §6, §7, §8, §9, §10, §11

Where [1] appears, read: A549 non small cell lung carcinoma, SRB, 48 hours, read-out: ED50 (the source's name).

As for `CC(=O)Oc1ccc(C2(COC(=O)Cc3ccccc3)CO2)c(OC(C)=O)c1` (centres unmarked) [Compound 27-1, 2-(2',4'-Diacetoxyphenyl)-3-phenylacetoxy-1,2-epoxypropane], the IC50 in the test with A549 (A549, 48 h, read-out: ED50) was found to be 30.6 µM; in the test with SK-OV-3, 2.9 µM; with SK-MEL-2 it was 4.5 µM; in the test with XF498 it was 4.7 µM; in the test on HCT15, 3 µM.
In the case of `CC(=O)Oc1cc(C)ccc1C(O)(CO)COC(=O)c1ccc([N+](=O)[O-])cc1` (centres unmarked) [Compound 15-6, 10-(4-Nitrobenzoxy)-8,9-dihydroxythymol acetate], the IC50 is more than 100 µM in the test on A549 (setting [1]); 19.6 µM in the test with SK-OV-3; 10.9 µM in the test with SK-MEL-2; 40.9 µM in the test on XF498; 10.4 µM with HCT15.
On to `CC(=O)Oc1ccccc1C1(COC(=O)Cc2ccccc2)CO1` (centres unmarked) [Compound 33-1], for which the IC50 in the test on A549 (A549, 48 h, read-out: ED50) was 42.8 µM; with SK-OV-3, 11.5 µM; with SK-MEL-2, 9.3 µM; with XF498 it was 9.8 µM; with HCT15 it was 10.4 µM.
The like results for `Cc1ccc(C2(COC(=O)Cc3ccccc3)CO2)c(OC(=O)C(C)C)c1` (centres unmarked) [Compound 11-1, 10-Phenylacetoxy-8,9-epoxythymol isobutyrate] were, in that order, 35.5 µM, 7.9 µM, 10.5 µM, 32.5 µM and 9.5 µM.
Turning to `C=C(CO)c1ccc(C)cc1OCc1ccc(OC)cc1` [Compound 35-1], the IC50 came out at 10.6 µM with A549 (setting [1]); 13.1 µM with SK-OV-3; 12.7 µM in the test with SK-MEL-2; 11.8 µM in the test on XF498; 12.1 µM with HCT15.
As to `CC(=O)Oc1ccccc1C1(COC(=O)c2ccccc2)CO1` (centres unmarked) [Compound 33-5], the IC50 in the test on A549 (setting [1]) was found to be 43.3 µM; in the test on SK-OV-3, 9.9 µM; in the test on SK-MEL-2, 8.5 µM; in the test on XF498 it was 6.2 µM; with HCT15, 7 µM.
The like results for `CC(=O)Oc1ccc(C2(COC(=O)Cc3ccc(F)cc3)CO2)c(OC(C)=O)c1` (centres unmarked) [Compound 27-3, 2-(2',4'-Diacetoxyphenyl)-3-(4-fluorophenylacetoxy)-1,2-epoxypropane] were, in that order, 36.7 µM, 3.9 µM, 9.3 µM, 11 µM and 4.5 µM.
